{"source": "patent US20250308633A1", "about": "“Methods Regarding the Treatment or Prevention of Diseases Including Cancer by Modulating Transcriptional Networks Controlling MET and EMT” (Yale University, priority 2024, published 2025)", "target": "T1, ESRRA (Homo sapiens, UniProt P11474)", "T1 construct": "endogenous in cells; host or cells: HCC38 CD44hi cells (FACS-sorted from bulk HCC38, 2D culture)", "T1 sequence (P11474 1-423)": "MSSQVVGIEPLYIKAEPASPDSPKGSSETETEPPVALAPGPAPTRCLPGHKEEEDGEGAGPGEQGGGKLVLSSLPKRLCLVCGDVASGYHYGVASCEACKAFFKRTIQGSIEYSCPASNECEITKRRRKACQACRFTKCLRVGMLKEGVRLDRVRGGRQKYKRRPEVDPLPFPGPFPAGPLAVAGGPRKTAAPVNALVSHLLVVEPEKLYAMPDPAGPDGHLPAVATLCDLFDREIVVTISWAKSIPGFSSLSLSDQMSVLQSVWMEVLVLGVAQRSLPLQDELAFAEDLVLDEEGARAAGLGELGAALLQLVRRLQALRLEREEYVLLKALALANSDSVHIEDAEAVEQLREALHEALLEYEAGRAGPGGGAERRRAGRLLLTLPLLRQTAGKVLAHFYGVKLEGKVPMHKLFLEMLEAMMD", "assay": "Western blot of CDH1 expression after ESRRA inhibitor (C14) treatment of HCC38 CD44hi cells", "format": "cell-based", "settings": "2D cultured HCC38 CD44hi cells; 5 and 10 M; 48 hours post-treatment; vs DMSO vehicle; n=3 biological replicates; p≤0.05", "description": "In parallel, HCC38 CD44^hi cells were also treated with an ESRRA inhibitor ((2-Aminophenyl)(1-(3-isopropylphenyl)-1H-1,2,3-triazol-4-yl)methanone) (BLD Pharm, China, Cat no. BD01201330) (referred to as Compound 14 (C14) herein) at 5 and 10 M concentrations. Vehicle controls were treated with DMSO. Cells were harvested 48 hours post-treatment and processed for protein extraction which were studied for changes in ESRRA and CDH1 expression using western blot (n=3 biological replicates).\nWestern Blotting: Proteins were extracted from control and treated cells using ice cold modified RIPA buffer (50 mM Tris-HCl pH 7.5, 150 mM NaCl, 1 mM EDTA, 1 mM EGTA, 1% Triton X-100, 0.1% SDS with supplemented with 1× protease and phosphatase inhibitor cocktails). The lysates were sonicated using a QSONICA Q55 probe sonicator at […] for 20 seconds in an ice bath. This whole cell lysate was centrifuged at 14,000×g for 10 min at 4° C. and stored in −80° C. until further use. Proteins were quantified using the Pierce™ BCA Protein Assay Kit (Cat. 23227, Thermo Fisher Scientific, USA) as per the manufacturer's instructions. […]\nNext, membranes were incubated with appropriate HRP-conjugated secondary antibodies. […] The signal intensity of the bands in western blots was quantified using Image Studio Lite version 5.2 (LI-COR Biotechnology, USA)."}
{"compound": "CC(C)c1cccc(-n2cc(C(=O)c3ccccc3N)nn2)c1", "note": "[ESRRA antagonist, (2-Aminophenyl)(1-(3-isopropylphenyl)-1H-1,2,3-triazol-4-yl)methanone]", "values": [{"measurement": "CDH1 expression (western blot, relative fold-change)", "value": "significant increase"}]}
